Test results: patent US20040087590A1, “Novel biphenyl and biphenyl-like cannabinoids” (University of Connecticut, priority 2002, published 2004)
Read-outs that look alike come from different tables or passages of the source.

Legend:
CB1 cannabinoid receptor = molecular target: T1, CB1 cannabinoid receptor (Rattus norvegicus, UniProt P20272); assay: CB1 receptor binding assay ([3H] CP-55,940 displacement, rat forebrain membranes); conditions: 0.8 nM [3H] CP-55,940, read-out: CB1 (nM) binding affinity (Ki)
T1 construct: membranes were prepared from rat forebrain membranes; from tissue; host or cells: rat forebrain membranes
T1 sequence (P20272 whole entry): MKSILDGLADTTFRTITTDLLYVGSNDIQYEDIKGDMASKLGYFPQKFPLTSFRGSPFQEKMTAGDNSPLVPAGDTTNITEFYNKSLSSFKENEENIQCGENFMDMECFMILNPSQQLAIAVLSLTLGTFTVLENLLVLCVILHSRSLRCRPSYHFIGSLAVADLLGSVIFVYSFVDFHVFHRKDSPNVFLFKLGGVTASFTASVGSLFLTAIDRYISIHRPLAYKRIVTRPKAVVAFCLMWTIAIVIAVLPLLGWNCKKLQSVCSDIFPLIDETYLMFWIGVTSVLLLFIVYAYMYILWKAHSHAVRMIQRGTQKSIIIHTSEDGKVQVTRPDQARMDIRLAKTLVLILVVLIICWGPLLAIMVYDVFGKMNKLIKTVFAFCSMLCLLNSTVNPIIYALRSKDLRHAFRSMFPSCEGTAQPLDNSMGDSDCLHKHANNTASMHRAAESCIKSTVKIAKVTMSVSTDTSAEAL
Experimental: Some inventive analogs were tested for CB2 receptor binding affinity and for CB1 receptor affinity (to determine selectivity). As used herein, “binding affinity” is represented by the Ki value which is the inhibition constant correlated with the concentration of an analog required to occupy the 50% of the total number (Bmax) of the receptors. The lower the Ki value, the higher the binding affinity. […] For the CB1 receptor binding studies, membranes were prepared from rat forebrain membranes according to the procedure of P. R. Dodd et al, A Rapid Method for Preparing Synaptosomes: Comparison with Alternative Procedures, Brain Res., 107-118 (1981). The binding of the novel analogues to the CB1 cannabinoid receptor was assessed as described in W. A. Devane et al, Determination and Characterization of a Cannabinoid Receptor in a Rat Brain, Mol. Pharmacol., 34, 605-613 (1988) and A. Charalambous et al, 5′-azido Δ^8-THC: A Novel Photoaffinity Label for the Cannabinoid Receptor, J. Med. Chem., 35, 3076-3079 (1992) with the following changes. The above articles are incorporated by reference herein.
Membranes, previously frozen at −80° C., were thawed on ice. To the stirred suspension was added three volumes of TME (25 mM Tris-HCl buffer, 5 mM MgCl2 and 1 mM EDTA) at a pH 7.4. The suspension was incubated at 4° C. for 30 min. At the end of the incubation, the membranes were pelleted and washed three times with TME.
The treated membranes were subsequently used in the binding assay described below. Approximately 30 μg of membranes were incubated in silanized 96-well microtiter plate with TME containing 0.1% essentially fatty acid-free bovine serum albumin (BSA), 0.8 nM [^3H] CP-55,940, and various concentrations of test materials in a final volume of 200 μL. The assays were incubated for 1 hour at 30° C. and then immediately filtered using Packard Filtermate 196 harvester and Whatman GF/C filterplates and washed with wash buffer (TME) containing 0.5% BSA. Radioactivity was detected using MicroScint 20 scintillation cocktail added directly to the dried filterplates, and the filterplates were counted using a Packard Instruments Top-Count. Nonspecific binding was assessed using 100 nM CP-55,940. Data collected from three independent experiments performed with duplicate determinations was normalized between 100% and 0% specific binding for [^3H] CP-55,940, determined using buffer and 100 nM CP-55,940. The normalized data was analyzed using a 4-parameter nonlinear logistic equation to yield IC50 values. Data from at least two independent experiments performed in duplicate was used to calculate IC50 values which were converted to Ki values using the assumptions of Cheng et al, Relationship Between the Inhibition Constant (Ki) and the concentration of Inhibitor which causes 50% Inhibition (IC50) of an Enzymatic Reaction, Biochem. Pharmacol., 22, 3099-3102, (1973), which is incorporated by reference herein.

CB2 receptor = molecular target: T2, CB2 receptor (Mus musculus, UniProt P47936); assay: CB2 receptor binding assay ([3H] CP-55,940 displacement, mouse spleen membranes)
T2 construct: membranes were prepared from frozen mouse spleen; from tissue; host or cells: frozen mouse spleen membranes
T2 sequence (P47936 whole entry): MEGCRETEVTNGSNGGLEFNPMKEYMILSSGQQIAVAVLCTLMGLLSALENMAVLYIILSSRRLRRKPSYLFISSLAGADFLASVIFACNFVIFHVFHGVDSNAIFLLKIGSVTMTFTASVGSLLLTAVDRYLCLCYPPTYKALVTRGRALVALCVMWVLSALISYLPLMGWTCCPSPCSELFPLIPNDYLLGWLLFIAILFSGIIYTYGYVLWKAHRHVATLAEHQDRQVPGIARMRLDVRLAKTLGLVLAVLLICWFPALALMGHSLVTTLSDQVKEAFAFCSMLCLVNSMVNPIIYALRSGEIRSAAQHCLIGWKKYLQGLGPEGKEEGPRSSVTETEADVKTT
Experimental: The treated membranes were subsequently used in the binding assay described below. Approximately 30 μg of membranes were incubated in silanized 96-well microtiter plate with TME containing 0.1% essentially fatty acid-free bovine serum albumin (BSA), 0.8 nM [^3H] […] Radioactivity was detected using MicroScint 20 scintillation cocktail added directly to the dried filterplates, and the filterplates were counted using a Packard Instruments Top-Count. […] Data collected from three independent experiments performed with duplicate determinations was normalized between 100% and 0% specific binding for [^3H] […] The normalized data was analyzed using a 4-parameter nonlinear logistic equation to yield IC50 values.
Silanized centrifuge tubes were used throughout to minimize receptor loss due to adsorption. The CB2 binding assay was conducted in the same manner as for the CB1 binding assay. The binding affinities (Ki) were also expressed in nanomoles (nM).

[1] = mouse spleen membranes, [3H] CP-55,940, read-out: CB2 (nM) binding affinity (Ki)

Row | Compound | Ki (CB1 cannabinoid receptor) | Ki (CB2 receptor) | Ki (CB2 receptor; [1])
1 | CCCCCCC(C)(C)c1cc(O)c(-c2cncc(C(=O)OCC)c2)c(O)c1 [Compound 21] | 17.2 nM | 0.2 nM | 
2 | CCCCCCC(C)(C)c1cc(O)c(-c2cc(CO)ccc2C)c(O)c1 [Compound 28] | 70.4 nM |  | 7 nM
3 | CCCCCCC(C)(C)c1cc(O)c(-c2cc(CO)ccc2CO)c(O)c1 [Compound 27] | 29.6 nM |  | 2.6 nM
4 | CCCCCCC(C)(C)c1cc(O)c(-c2cccc(/C=C/C(=O)OCC)c2)c(O)c1 [Compound 30] | 397 nM |  | 10 nM
5 | CCCCCCC(C)(C)c1cc(O)c(-c2ccccc2CO)c(O)c1 [Compound 14] | 53.8 nM |  | 1.4 nM
6 | CCCCCCC(C)(C)c1cc(O)c(-c2cc(C)c(N)c(C)c2)c(O)c1 [Compound 12] | 797 nM |  | 8 nM
7 | CCCCCCC(C)(C)c1cc(O)c(-c2cc(C)ccc2F)c(O)c1 [Compound 5] | 6.5 nM |  | 2.3 nM
8 | CCCCCCCN(C)c1cc(O)c(-c2cc(OC)ccc2C(=O)N(C(C)C)C(C)C)c(OC)c1 [Compound 36] | 1870 nM | 154 nM | 
9 | CCCCCCC(C)(C)c1cc(O)c(-c2cc(Br)ccc2CO)c(O)c1 [Compound 32] | 8.6 nM | 0.7 nM | 
10 | CCCCCCC(C)(C)c1cc(O)c(-c2cc(Cl)ccc2Cl)c(O)c1 [Compound 6] | 7.7 nM |  | 2.6 nM
11 | CCCCCCC(C)(C)c1cc(O)c(-c2cc(Cl)cc(Cl)c2)c(O)c1 [Compound 1] | 2.6 nM |  | 0.6 nM
12 | CCCCCCC(C)(C)c1cc(O)c(-c2cc(O)ccc2CO)c(O)c1 [Compound 15] | 141 nM | 4.5 nM | 
13 | CCCCCCC(C)(C)c1cc(O)c(-c2cc(C(F)(F)F)cc(C(F)(F)F)c2)c(O)c1 [Compound 2] | 9.7 nM |  | 0.9 nM
14 | CCCCCCC(C)(C)c1cc(O)c(-c2cc(F)ccc2CO)c(O)c1 [Compound 26] | 24.5 nM |  | 1.8 nM
15 | CCCCCCC(C)(C)c1cc(O)c(-c2c(F)cccc2F)c(O)c1 [Compound 8] | 40.3 nM |  | 13.4 nM
16 | CCCCCCC(C)(C)c1cc(O)c(-c2ccc(C(=O)OCC)o2)c(O)c1 [Compound 29] | 3220 nM | 35.4 nM | 
17 | CCCCCCC(C)(C)c1cc(O)c(-c2c(Cl)ccc(Cl)c2Cl)c(O)c1 [Compound 9] | 23.2 nM | 3.4 nM | 
18 | CCCCCCC(C)(C)c1cc(O)c(-c2cccc(C(=O)OCC)c2)c(O)c1 [Compound 22] | 241 nM |  | 0.8 nM
19 | CCCCCCC(C)(C)c1cc(O)c(-c2cc(C)c(O)c(C)c2)c(O)c1 [Compound 10] | 1360 nM |  | 15.3 nM
20 | CCCCCCC(C)(C)c1cc(O)c(-c2cc([N+](=O)[O-])cc([N+](=O)[O-])c2)c(O)c1 [Compound 3] | 199 nM |  | 3.5 nM
21 | CCCCCCC(C)(C)c1cc(O)c(-c2cc(F)cc(F)c2)c(O)c1 [Compound 4] | 57.5 nM |  | 8.4 nM
22 | CCCCCCC(C)(C)c1cc(O)c(-c2cccc(C#N)c2)c(O)c1 [Compound 31] | 20 nM |  | 1.1 nM
23 | CCCCCCC(C)(C)c1cc(O)c(-c2cccc(C(C)=O)c2)c(O)c1 [Compound 24] | 297 nM | 11.3 nM | 
24 | CCCCCCC(C)(C)c1cc(O)c(-c2cc(O)ccc2CCCO)c(O)c1 [Compound 25] | 12.2 nM |  | 1 nM
25 | CCCCCCC(C)(C)c1cc(O)c(-c2cc(C)c(OC)c(C)c2)c(O)c1 [Compound 11] | 1080 nM |  | 12.8 nM
26 | CCCCCCC(C)(C)c1cc(O)c(-c2cc(Cl)cc(Cl)c2)c(OC)c1 [Compound 7] | 105 nM |  | 13.9 nM
